# Experimental data published in PubChem BioAssay AID624404 (Broad Institute, 2012).
# Records with an inconclusive call do not appear. Activity calls are given as the source filed them.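 The calls were made as follows: active = luciferase signal rise whose fitted curve crosses a set activity limit at or below the top valid tested dose; inconclusive = flat fit with 30 to 70% rise, or poor fit; inactive = signal falling, flat within 30%, or crossing above top dose.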
# System: D54 LucT luciferase reporter counterscreen, luminescence, 24 h
# Test: reporter signal increase, D54 LucT cells – cell-based, luminescence, cherry pick, counter-screen for N-linked glycosylation inhibitor project, dose response (AID 624404)
row,Structure (SMILES),AC35
1,CCOc1ccc2c(c1)OC(c1ccc(OC)cc1)(C(F)(F)F)NC2=O (stereo not given),748 nM
2,CSc1cccc(NC(=O)CCCOc2cc(=O)n(C)c3ccccc23)c1,4530 nM
3,Cc1cc(C)n(-c2nnc3n2N=C(c2c[nH]c4ccccc24)CS3)n1,28.5 nM
4,COc1ccc2c(c1)OC[C@H]1[C@H]2N2C(=O)c3cc(OC)ccc3NC(=O)[C@@]2(C)[C@H]1c1ccccc1,1080 nM
5,COc1ccc(CNC(=O)C/C(C)=N/NC(=O)COc2ccc(C)cc2Br)cc1,3090 nM
6,COc1ccc(CCn2c(=N)c(C(=O)NCC3CCCO3)cc3c(=O)n4cccc(C)c4nc32)cc1OC (stereo not given),154 nM
7,Cc1cc(=O)oc2cc(NC(=O)c3cccc(S(C)(=O)=O)c3)ccc12,526 nM
8,CNC(=O)c1cccn(Cc2cccc(C(F)(F)F)c2)c1=O,231 nM
9,Oc1ccc(Nc2nc(N3CCCC3)c3ccccc3n2)cc1,150 nM
10,C=CCn1c(SCc2c(C)noc2C)nc2sc(C)c(C)c2c1=O,2020 nM
11,COc1ccccc1-c1csc(C(NC(C)=O)c2ccc(F)c(F)c2)n1 (stereo not given),420 nM
12,COc1ccc(NC(=O)C2Cc3c(-c4cccc(C(C)=O)c4)ccnc3O2)cc1 (stereo not given),90.9 nM
13,COc1ccccc1/C=N/NC(=O)c1cc2c(OC)c(OC)ccc2[nH]1,987 nM
14,COc1ccc(/C=N\NC(=O)c2sccc2C)cc1Cn1nc(C)cc1C,280 nM
15,C=CCn1c(SCc2c(C)noc2C)nc2sc3c(c2c1=O)CCC(C)C3 (stereo not given),238 nM
16,Cc1ccc(C)c(NC(=S)NC(NC(=O)Cc2cccc3ccccc23)C(Cl)(Cl)Cl)c1 (stereo not given),3550 nM
17,CCCOc1ccc2ccccc2c1/C=N/n1c(C)nnc1-n1nc(C)cc1C,18.4 nM
18,NC(=O)CC(NC(=O)Cc1ccc(Br)cc1)c1ccc(NC2CCCC2)c([N+](=O)[O-])c1 (stereo not given),2870 nM
19,COCCNC(=O)c1cc(-c2cccs2)on1,1020 nM
20,OCC1OC(n2ccc3c(SCc4ccccc4)ncnc32)C(O)C1O (stereo not given),148 nM
21,O=C(Nc1ccccc1O)c1ccc(NC(=O)C2CC2)cc1,432 nM
22,Cc1nc(Nc2nc(-c3ccccc3)cc(=O)[nH]2)nc2ccccc12,4910 nM
23,O=c1cc(-c2ccccc2)nc2cc(-c3ccc(F)cc3)[nH]n12,2190 nM
24,Cn1c(=O)c2cc(NC(=O)CCc3ccccc3)ccc2n1-c1ccccc1F,2980 nM
25,CC#CCN1c2ccccc2[C@]23C[C@@H](C(=O)OC)N(C(=O)c4cc(C)oc4C)C2=NC(C(=O)OC)=C(C(=O)OC)[C@H]13,2270 nM

row,Structure (SMILES),AC35
1,COc1cccc(/C=N/NC(=O)c2cc3c(OC)c(OC)ccc3[nH]2)c1OC,4940 nM
2,Clc1ccc(CSc2cnnc3ccccc23)cc1Cl,2090 nM
3,COc1cc(C(=O)N/N=C/c2ccc3c(c2)c2ccccc2n3C)ccc1O,9590 nM
4,O=C(N/N=C\c1cn(-c2ccccc2)nc1-c1ccccc1)c1ccc(Br)o1,957 nM
5,Cc1ccc(O)c(C(=O)C=Cc2ccccc2)c1,8.29 nM
6,CC#CC#Cc1cccc(=O)o1,407 nM
7,O=C1c2cccc3c([N+](=O)[O-])ccc(c23)C(=O)N1CC1CCCO1 (stereo not given),315 nM
8,O=C(CCl)Nc1cccc(S(=O)(=O)NC2=NCCC2)c1,1620 nM
9,Cc1ccc(N2CCN(C3=NC(=O)/C(=C\c4cn[nH]c4-c4ccccc4)S3)CC2)cc1,793 nM
10,c1ccc(CNc2nc(-c3ccccc3)nc3ccccc23)cc1,3010 nM
11,Cc1ccc2c(c1)C(=O)N1[C@H]3c4cc(Cl)ccc4OC[C@@H]3[C@H](c3ccccc3)[C@]1(C)C(=O)N2,650 nM
12,COc1cccc(CNC(=O)COC(=O)c2ccc(-c3ccc(O)cc3)cc2)c1,3650 nM
13,O=C(COc1ccccc1CNCc1ccccc1)Nc1ccccc1,890 nM
14,COc1ccc(NC(=O)c2cc(S(=O)(=O)N(C)C)ccc2N2CCCC2)cc1Cl,> 19500 nM (inactive)
15,Cc1ccc(-c2nc(NCCN(C)C)c3ccccc3n2)cc1,4450 nM
16,CCOC(=O)[C@H]1[C@H]2COc3ccc(Br)cc3[C@@H]2N2C(=O)c3cc(OC)c(OC)cc3NC(=O)[C@@]12C,3990 nM
17,CCn1c2ccccc2c2cc(NC(=O)COC(=O)c3ccccc3F)ccc21,4220 nM
18,CCOc1ccc(/C=C/C(=O)c2ccccc2)cc1OC,1260 nM
19,COc1cccc(C2=NOC(C(=O)NCc3ccccc3)C2)c1 (stereo not given),102 nM
20,C(=N\Nc1nc2ccccc2[nH]1)/c1c[nH]c2ccccc12,718 nM
21,O=C(Nc1ccc(S(=O)(=O)N2CCOCC2)cc1)c1cc(-c2cc(Cl)ccc2O)n[nH]1,1370 nM
22,O=C(NCCc1ccccc1)C1c2ccccc2C(=O)N1Cc1cccs1 (stereo not given),1400 nM
23,Cc1cc(=O)oc2cc(OCC(=O)N3c4ccccc4CC3C)ccc12 (stereo not given),1370 nM
24,CC(=O)c1ccc(N2CCN(C(=O)c3cccc(Oc4ccccc4)c3)CC2)cc1,1270 nM
25,COc1ccc(-c2cc(C(F)F)n3ncc(C(=O)n4ccnc4C)c3n2)cc1,2770 nM

row,Structure (SMILES),AC35
1,COc1ccc(NC(=O)CSc2nc3ccsc3c(=O)n2Cc2ccccn2)c(OC)c1,> 19500 nM (inactive)
2,CCOc1ccc(N2CCc3c(C)nc(SC)nc32)cc1,3060 nM
3,Cc1ccc2c(c1)[C@H]1[C@H](CO2)[C@H](c2ccccc2)[C@]2(C)C(=O)Nc3ccc(Br)cc3C(=O)N12,1760 nM
4,COc1cc2c(cc1OC)CN(c1ccc(-c3ccccc3OC)nn1)CC2,7870 nM
5,Cc1ccc(-c2cc(C(=O)NCC(c3ccccc3)N(C)C)c3ccccc3n2)o1 (stereo not given),3300 nM
6,COc1cc(/C=N/n2cnc3scc(-c4cccs4)c3c2=O)cc(OC)c1OC,177 nM
7,COc1cc2c(cc1OC)C(=O)N1[C@H]3c4cc(Cl)ccc4OC[C@@H]3[C@H](c3ccccc3)[C@]1(C)C(=O)N2,449 nM
8,Cc1ccc(C(=O)N/C(=C\c2cccs2)C(=O)NCCc2c[nH]c3ccccc23)cc1,1090 nM
9,Cn1c(-c2ccccc2)c(/C=N/NC(=O)c2ccc(O)cc2)c2ccccc21,319 nM
10,COc1ccc2c(c1)C(=O)N1[C@H]3c4cc(C)ccc4OC[C@@H]3[C@H](c3ccccc3)[C@]1(C)C(=O)N2,933 nM
11,O=C(c1ccc(Cl)c(S(=O)(=O)N2CCCCC2)c1)N1CCN(Cc2ccccc2)CC1,1920 nM
12,O=C1[C@H]2[C@@H](c3ccc(F)cc3)N3C(=O)N(c4cccc(Cl)c4)C(=O)[C@@]3(Cc3ccccc3)[C@H]2C(=O)N1C1CCCCC1,1060 nM
13,Oc1[nH]c(N=C2N=c3ccccc3=N2)c2ccccc12,17.2 nM
14,CC(Nc1nc(-c2ccccc2)nc2ccccc12)c1ccccc1 (stereo not given),379 nM
15,COc1ccccc1-c1csc(C(NC(C)=O)c2ccccc2)n1 (stereo not given),643 nM
16,O=C(NCCCN1CCOCC1)c1cc(-c2cccs2)on1,3630 nM
17,COc1cc2c(cc1OC)C(c1ccccc1)N(C(=O)c1cccc(S(C)(=O)=O)c1)CC2 (stereo not given),212 nM
18,COc1cccc(-c2nn(C)c3sc(C(=O)NCc4ccco4)cc23)c1,3350 nM
19,Cn1c(SCC(=O)c2ccc(F)cc2)ncc(C(=O)Nc2ccccc2)c1=O,1690 nM
20,O=C(O)c1ccc(N/N=C/c2ccc(-c3ccc(Cl)cc3Cl)o2)cc1,1470 nM
21,CCc1ccc(CNC(=O)Cc2ccc(NC(=O)C3=C(C)OCCS3)cc2)cc1,320 nM
22,COc1ccc2c(c1)[C@H]1[C@H](CO2)[C@H](c2ccccc2)[C@]2(C)C(=O)Nc3ccc(Br)cc3C(=O)N12,233 nM
23,O=C(/C=C/c1ccco1)Nc1nnc(-c2ccco2)s1,204 nM
24,COc1ccc2oc(-c3ccccc3[N+](=O)[O-])cc(=O)c2c1,174 nM
25,O=C(O)c1ccc(CN2C(=O)c3cccc4c([N+](=O)[O-])ccc(c34)C2=O)cc1,1140 nM
